Measurements taken from patent US12350269B2 (Alexion Pharmaceuticals, Inc., priority 2015, dated 2025).

Tests used:
Assay in all cases: DLBCL cell line viability, CellTiter Glo
Format in all cases: cell-based
Settings in all cases: read-out: IC50 of Kinase Inhibitor in CellTiter Glo Assay
[1] = tested on: LY18
Procedure: (§1) Each IC50 value is an average of at least four replicate experiments. Subsequent analysis using a FACS based caspase 3 cleavage detection kit (BD Biosciences) and Edu incorporation were performed.

[2] = tested on: VAL
Procedure: as §1

[3] = tested on: DHL6
Procedure: as §1

[4] = tested on: LY10
Procedure: as §1

[5] = tested on: DHL5
Procedure: as §1

[6] = tested on: U2932
Procedure: as §1

[7] = tested on: LY1
Procedure: as §1

[8] = tested on: DHL10
Procedure: as §1

[9] = tested on: LY7
Procedure: as §1

[10] = tested on: DHL8
Procedure: as §1

[11] = tested on: DLCL2
Procedure: as §1

[12] = tested on: DB
Procedure: as §1

[13] = tested on: TOLEDO
Procedure: as §1

[14] = tested on: RCK8
Procedure: as §1

## CC(C)(C)c1nc2c3cc[nH]c(=O)c3c3cc(F)ccc3c2[nH]1 [Pan-Jak]
[1]
  IC50: 0.8 µM
[2]
  IC50: 5.2 µM
[3]
  IC50: 2.63 µM
[4]
  IC50: 5.1 µM
[5]
  IC50: 39 µM
[6]
  IC50: 3.9 µM
[7]
  IC50: 0.7 µM
[8]
  IC50: 40 µM
[9]
  IC50: 34 µM
[10]
  IC50: 28 µM
[11]
  IC50: 42 µM
[12]
  IC50: 21.4 µM
[13]
  IC50: 5.9 µM
[14]
  IC50: 43 µM
